US9266904B2, “6-bridged heteroaryldihydropyrimidines for the treatment and prophylaxis of hepatitis B virus infection” (priority 2013, dated 2016)
Where two headings read alike, the source gives them in different places.

Assays:
[1] = system: HepDE19 cells; experiment: Cytotoxicity (CCK-8 cell viability) and selectivity index; assay type: cell-based, human; details: for Selectivity index (CC50/EC50): CC50 value/EC50 value; for CC50: cytotoxicity, concentration resulting in death of 50% of host cells
Excerpt: (§1) HepG2.2.15 and HepDE19 are stably-transfected cell lines containing the HBV genome. Both cell lines are derived from the hepatoblastoma cell line Hep G2 (American Type Culture Collection, ATCC® HB-8065™) by the published procedures described in references: M A Selles et al. Proc. Natl. Acad. Sci. USA 1987, 84, 1005-1009 and H Guo et al. Journal of Virology 2007, 81, 12472-12484, respectively. Both cell lines were maintained in Dulbecco's modified Eagle's medium (DMEM)-F12 medium supplemented with 10% fetal bovine serum, 100 U/mL penicillin, 100 μg/mL streptomycin, and 0.5 mg/mL of G418.
(§2) In a cell culture model, apparent antiviral activity of a compound can be the result of host cell death after exposure to the compound. To determine whether the anti-HBV effect of a test compound is due to cytotoxicity, HepDE19 cells were seeded into 96-well plates (5×10^3 cells per well) and treated with compounds as described above for EC50 determination. Five days after treatment, cell viability was measured by addition of 20 μL of CCK-8 reagent. Two hours after incubation at 37° C., the absorbance at wavelengths of 450 nm and 630 nm (OD450 and OD630) was recorded by a plate reader. The concentration results in the death of 50% of the host cells (CC50) of each compound was determined (See Table 5).

[2] = as above; assay type: cell-based, human; details: human, HepDE19 cells; cytotoxicity, concentration resulting in death of 50% of host cells
Excerpt: as §1, §2

[3] = system: HBV replication in HepG2.2.15 cells; experiment: Anti-HBV activity in vitro in HepG2.2.15 cells (extracellular HBV DNA by qPCR); assay type: cell-based
Method in brief: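 EC50 is derived from qPCR of extracellular viral DNA in culture supernatant after 5-day compound exposure. Cells (HepG2.2.15, stably carrying the HBV genome) were plated and incubated overnight at 37 °C before half-log dilution series were added at 0.5% final DMSO.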

[4] = Human microsomal clearance assay; assay type: in vitro ADME; details: human microsomal clearance
Method in brief: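 Liver microsomes (0.5 mg/mL protein) were incubated with 1 μM compound at 37 °C, pH 7.4 phosphate, with an NADPH-regenerating system. Samples at 0-30 min were quenched and measured by LC-MS/MS for parent loss. No-NADPH controls were included.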

[5] = Lyophilisation solubility assay (Lysa); assay type: physicochemical; details: 0.05 M phosphate buffer (pH 6.5); reported as bigger than the value if more than 80% of the sample is in solution
Experimental: The aqueous solubility is an important physico-chemical property that plays a significant role in various physical and biological processes. It is desirable to have good solubility which enables good permeability and gastric and intestinal absorption, linear dose proportionality, less PK variability, and easy formulation for PD/PK studies. […] Lyophilisation solubility assay (Lysa) is a well adopted high throughput assay to measure compound solubility in industry.
Samples are prepared in duplicate from 10 mM DMSO stock solutions. After evaporation of DMSO with a centrifugal vacuum evaporator, the residue is solved in 0.05 M phosphate buffer (pH 6.5), stirred for one hour and then shook for two hours. After one night, the solution is filtered using a microtiter filter plate and then the filtrate and its 1/10 dilution are then analyzed by direct UV measurement or by HPLC-UV. In addition a four-point calibration curve is prepared from the 10 mM stock solutions and used for the solubility determination of the compounds. The results are in μg/ml. In case the percentage of sample measured in solution after evaporation divided by the calculated maximum of sample amount is bigger than 80% the solubility is reported as bigger than this value.

[6] = Anti-HBV activity in HepG2.2.15 cells, read-out: EC50
[7] = Hepatitis B virus, HepG2.2.15, Anti-HBV activity in HepG2.2.15 cells, read-out: EC50

SMILES	Selectivity index (CC50/EC50) [1]	CC50 at 5 days [2] [nM]	EC50 ([3]; Hepatitis B virus, HepG2.2.15) [nM]	CLh [4] [mL/min/kg]	CC50 [1] [nM]	EC50 [3, 6] [nM]	EC50 [3, 7] [nM]	Lysa [5] [µg/mL]
CCOC(=O)CC1(NC(=O)C(F)(F)F)CC2COCC(C1)N2CC1=C(C(=O)OC)[C@H](c2ccc(F)cc2Cl)N=C(c2nccs2)N1 (stereo partly drawn) [Example 147, Methyl (4R)-4-(2-chloro-4-fluoro-phenyl)-6-[[7-(2-ethoxy-2-oxo-ethyl)-7-[(2,2,2-trifluoroacetyl)amino]-3-oxa-9-azabicyclo[3.3.1]nonan-9-yl]methyl]-2-thiazol-2-yl-1,4-dihydropyrimidine-5-carboxylate]	>111111	> 100000	0.9					
COC(=O)C1=C(CN2[C@@H]3C[C@@H](CC(=O)O)C[C@H]2C(F)(F)C3)NC(c2nccs2)=N[C@H]1c1ccc(Cl)c(F)c1 (single isomer, unassigned) [Example 113, 2-[(1R,3R,5S)-8-[[(4S)-4-(4-chloro-3-fluoro-phenyl)-5-methoxycarbonyl-2-thiazol-2-yl-1,4-dihydropyrimidin-6-yl]methyl]-6,6-difluoro-8-azabicyclo[3.2.1]octan-3-yl]acetic acid or 2-[(1S,3S,5R)-8-[[(4S)-4-(4-chloro-3-fluoro-phenyl)-5-methoxycarbonyl-2-thiazol-2-yl-1,4-dihydropyrimidin-6-yl]methyl]-6,6-difluoro-8-azabicyclo[3.2.1]octan-3-yl]acetic acid]				6.2	58000	9.1		
COC(=O)C1=C(CN2C3COCC2c2[nH]ncc23)NC(c2nccs2)=N[C@H]1c1ccc(F)cc1Cl (stereo partly drawn) [Example 45, (R)-4-(2-Chloro-4-fluoro-phenyl)-6-(9-oxa-3,4,11-triaza-tricyclo[5.3.1.0*2,6*]undeca-2(6),4-dien-11-ylmethyl)-2-thiazol-2-yl-1,4-dihydro-pyrimidine-5-carboxylic acid methyl ester]	85280	43000					0.5	
COC(=O)C1=C(CN2[C@@H]3COC[C@H]2CC2(C3)N=N2)NC(c2nccs2)=N[C@H]1c1ccc(F)cc1Cl [Example 43, (R)-6-(7-Diazirine-3-oxa-9-aza-bicyclo[3.3.1]non-9-ylmethyl)-4-(2-chloro-4-fluoro-phenyl)-2-thiazol-2-yl-1,4-dihydro-pyrimidine-5-carboxylic acid methyl ester]	14845	43000					3	
COC(=O)C1=C(CN2C3COCC2C(F)(F)c2[nH]ncc23)NC(c2nccs2)=N[C@H]1c1ccc(F)cc1Cl (stereo partly drawn) [Example 107, (R)-4-(2-Chloro-4-fluoro-phenyl)-6-(7,7-difluoro-10-oxa-4,5,12-triaza-tricyclo[6.3.1.0*2,6*]dodeca-2(6),3-dien-12-ylmethyl)-2-thiazol-2-yl-1,4-dihydro-pyrimidine-5-arboxylic acid methyl ester]	12495	26000					2.1	
COC(=O)C1=C(CN2C3COCC2CC(O)C3)NC(c2nccs2)=N[C@H]1c1ccc(F)cc1Cl (stereo partly drawn) [Example 7, (R)-4-(2-Chloro-4-fluoro-phenyl)-6-(7-hydroxy-3-oxa-9-aza-bicyclo[3.3.1]non-9-ylmethyl)-2-thiazol-2-yl-1,4-dihydro-pyrimidine-5-carboxylic acid methyl ester]	>8333	> 100000					12	
CCOC(=O)C1=C(CN2[C@@H]3COC[C@H]2C[C@H](NC(C)=O)C3)NC(c2nccs2)=N[C@H]1c1ccc(F)cc1Br [Example 71, Ethyl (4R)-6-[[(1S,5R)-7-exo-acetamido-3-oxa-9-azabicyclo[3.3.1]nonan-9-yl]methyl]-4-(2-bromo-4-fluoro-phenyl)-2-thiazol-2-yl-1,4-dihydropyrimidine-5-carboxylate]	14690	44000					3	
COC(=O)C1=C(CN2C3COCC2c2conc2C3)NC(c2nccs2)=N[C@H]1c1ccc(F)cc1Cl (stereo partly drawn) [Example 104, (4R)-4-(2-Chloro-4-fluoro-phenyl)-6-(4,10-dioxa-5,12-diaza-tricyclo[6.3.1.0*2,6*]dodeca-2,5-dien-12-ylmethyl)-2-thiazol-2-yl-1,4-dihydro-pyrimidine-5-carboxylic acid methyl ester]	9079	44000					4.8	
COC(=O)C1=C(CN2C3CC(F)(F)C2C[C@H]3C(=O)O)NC(c2nccs2)=N[C@H]1c1ccc(F)cc1Cl (stereo partly drawn) [Example 152, (5R)-7-[[(4R)-4-(2-chloro-4-fluoro-phenyl)-5-methoxycarbonyl-2-thiazol-2-yl-1,4-dihydropyrimidin-6-yl]methyl]-2,2-difluoro-7-azabicyclo[2.2.1]heptane-5-carboxylic acid]	>5650	> 100000					17.7	
CCOC(=O)C1=C(CN2[C@@H]3COC[C@H]2C[C@@H](NC(C)=O)C3)NC(c2nccs2)=N[C@H]1c1ccc(F)cc1Br [Example 70, Ethyl (4R)-6-[[(1S,5R)-7-endo-acetamido-3-oxa-9-azabicyclo[3.3.1]nonan-9-yl]methyl]-4-(2-bromo-4-fluoro-phenyl)-2-thiazol-2-yl-1,4-dihydropyrimidine-5-carboxylate]	7268	60000					8.2	
CCOC(=O)C(O)C1(O)CC2COCC(C1)N2CC1=C(C(=O)OC)[C@H](c2ccc(F)cc2Cl)N=C(c2nccs2)N1 (stereo partly drawn) [Example 137, Methyl (4R)-4-(2-chloro-4-fluoro-phenyl)-6-[[7-(2-ethoxy-1-hydroxy-2-oxo-ethyl)-7-hydroxy-3-oxa-9-azabicyclo[3.3.1]nonan-9-yl]methyl]-2-thiazol-2-yl-1,4-dihydropyrimidine-5-carboxylate]	17031	55000					3.2	
COC(=O)C1=C(CN2C3COCC2CN(CC(F)F)C3)NC(c2nccs2)=N[C@H]1c1ccc(F)cc1Cl [Example 14, (R)-4-(2-Chloro-4-fluoro-phenyl)-6-[7-(2,2-difluoro-ethyl)-3-oxa-7,9-diaza-bicyclo[3.3.1]non-9-ylmethyl]-2-thiazol-2-yl-1,4-dihydro-pyrimidine-5-carboxylic acid methyl ester]	>7692	> 100000					13	
COC(=O)C1=C(CN2[C@H]3COC[C@@H]2C(F)(F)[C@H](CC(=O)O)C3)NC(c2nccs2)=N[C@H]1c1ccc(F)c(F)c1Cl (single isomer, unassigned) [Example 131, 2-[(1R,5R,7S)-9-[[(4R)-4-(2-chloro-3,4-difluoro-phenyl)-5-methoxycarbonyl-2-thiazol-2-yl-1,4-dihydropyrimidin-6-yl]methyl]-6,6-difluoro-3-oxa-9-azabicyclo[3.3.1]nonan-7-yl]acetic acid or 2-[(1S,5S,7R)-9-[[(4R)-4-(2-chloro-3,4-difluoro-phenyl)-5-methoxycarbonyl-2-thiazol-2-yl-1,4-dihydropyrimidin-6-yl]methyl]-6,6-difluoro-3-oxa-9-azabicyclo[3.3.1]nonan-7-yl]acetic acid]				0	53000	5.7		261
COC(=O)C1=C(CN2C3COCC2c2cnoc2C3)NC(c2nccs2)=N[C@H]1c1ccc(F)cc1Cl (stereo partly drawn) [Example 105, (4R)-4-(2-Chloro-4-fluoro-phenyl)-6-(5,10-dioxa-4,12-diaza-tricyclo[6.3.1.0*2,6*]dodeca-2(6),3-dien-12-ylmethyl)-2-thiazol-2-yl-1,4-dihydro-pyrimidine-5-carboxylic acid methyl ester]	12041	33000					2.7	
